Measurements reported in ChEMBL document CHEMBL1649268, “Comparative in vitro activity profile of oritavancin against recent gram-positive clinical isolates” (2009).
Converted amounts (≈) assume the structure as drawn.

Assays:
[1] = system: Staphylococcus epidermidis; experiment: Antimicrobial activity against oxacillin-resistant Staphylococcus epidermidis clinical isolates assessed as percent susceptible isolates by broth microdilution method; format: functional
[2] = Antimicrobial activity against erythromycin-nonsusceptible Streptococcus Group C clinical isolates assessed as resistant isolates by broth microdilution method; format: functional, Streptococcus sp. 'group C'
[3] = Antimicrobial activity against erythromycin-nonsusceptible Streptococcus Group G clinical isolates assessed as resistant isolates by broth microdilution method; format: functional, Streptococcus sp. 'group G'
Streptococcus pyogenes = experiment: Antimicrobial activity against erythromycin-nonsusceptible Streptococcus pyogenes clinical isolates assessed as resistant isolates by broth microdilution method; format: functional
[4] = Antimicrobial activity against Streptococcus Group G clinical isolates assessed as percent susceptible isolates by broth microdilution method; format: functional, Streptococcus sp. 'group G'
Streptococcus [5] = experiment: Antimicrobial activity against Streptococcus Group F clinical isolates assessed as resistant isolates by broth microdilution method; format: functional
[6] = system: Staphylococcus epidermidis; experiment: Antimicrobial activity against oxacillin-susceptible Staphylococcus epidermidis clinical isolates assessed as percent susceptible isolates by broth microdilution method; format: functional
[7] = system: Staphylococcus haemolyticus; experiment: Antimicrobial activity against oxacillin-susceptible Staphylococcus haemolyticus clinical isolates assessed as resistant isolates by broth microdilution method; format: functional
Streptococcus pneumoniae [8] = experiment: Antimicrobial activity against penicillin-resistant Streptococcus pneumoniae clinical isolates assessed as resistant isolates by broth microdilution method; format: functional
[9] = system: Staphylococcus haemolyticus; experiment: Antimicrobial activity against Staphylococcus haemolyticus clinical isolates by broth microdilution method; format: functional
[10] = system: Staphylococcus epidermidis; experiment: Antimicrobial activity against Staphylococcus epidermidis clinical isolates assessed as resistant isolates by broth microdilution method; format: functional
Streptococcus pneumoniae [11] = experiment: Antimicrobial activity against penicillin-susceptible Streptococcus pneumoniae clinical isolates assessed as resistant isolates by broth microdilution method; format: functional
Staphylococcus aureus [12] = experiment: Antimicrobial activity against Staphylococcus aureus clinical isolates assessed as percent susceptible isolates by broth microdilution method; format: functional
[13] = system: Staphylococcus haemolyticus; experiment: Antimicrobial activity against oxacillin-resistant Staphylococcus haemolyticus clinical isolates assessed as percent susceptible isolates by broth microdilution method; format: functional
[14] = system: Staphylococcus haemolyticus; experiment: Antimicrobial activity against Staphylococcus haemolyticus clinical isolates assessed as resistant isolates by broth microdilution method; format: functional
[15] = system: Staphylococcus epidermidis; experiment: Antimicrobial activity against Staphylococcus epidermidis clinical isolates by broth microdilution method; format: functional
[16] = Antimicrobial activity against erythromycin-susceptible Streptococcus Group C clinical isolates assessed as resistant isolates by broth microdilution method; format: functional, Streptococcus sp. 'group C'
Streptococcus [17] = experiment: Antimicrobial activity against erythromycin-nonsusceptible Streptococcus Group F clinical isolates assessed as percent susceptible isolates by broth microdilution method; format: functional
Streptococcus [18] = experiment: Antimicrobial activity against erythromycin-nonsusceptible Streptococcus Group F clinical isolates assessed as resistant isolates by broth microdilution method; format: functional
Streptococcus [19] = experiment: Antimicrobial activity against Streptococcus Group F clinical isolates assessed as percent susceptible isolates by broth microdilution method; format: functional
[20] = system: Staphylococcus epidermidis; experiment: Antimicrobial activity against Staphylococcus epidermidis clinical isolates assessed as percent susceptible isolates by broth microdilution method; format: functional
Staphylococcus aureus [21] = experiment: Antimicrobial activity against oxacillin-susceptible Staphylococcus aureus clinical isolates assessed as percent susceptible isolates by broth microdilution method; format: functional
[22] = Antimicrobial activity against erythromycin-nonsusceptible Streptococcus Group G clinical isolates assessed as percent susceptible isolates by broth microdilution method; format: functional, Streptococcus sp. 'group G'
Staphylococcus aureus [23] = experiment: Antimicrobial activity against oxacillin-susceptible Staphylococcus aureus clinical isolates by broth microdilution method; format: functional
[24] = system: Staphylococcus haemolyticus; experiment: Antimicrobial activity against oxacillin-susceptible Staphylococcus haemolyticus clinical isolates assessed as percent susceptible isolates by broth microdilution method; format: functional
[25] = system: Staphylococcus haemolyticus; experiment: Antimicrobial activity against oxacillin-susceptible Staphylococcus haemolyticus clinical isolates by broth microdilution method; format: functional
Staphylococcus aureus [26] = experiment: Antimicrobial activity against oxacillin-resistant Staphylococcus aureus clinical isolates assessed as resistant isolates by broth microdilution method; format: functional
Streptococcus pneumoniae [27] = experiment: Antimicrobial activity against Streptococcus pneumoniae clinical isolates assessed as resistant isolates by broth microdilution method; format: functional
Streptococcus [28] = experiment: Antimicrobial activity against erythromycin-susceptible Streptococcus Group F clinical isolates assessed as percent susceptible isolates by broth microdilution method; format: functional
Staphylococcus aureus [29] = experiment: Antimicrobial activity against oxacillin-resistant Staphylococcus aureus clinical isolates assessed as percent susceptible isolates by broth microdilution method; format: functional
[30] = Antimicrobial activity against Streptococcus Group C clinical isolates assessed as percent susceptible isolates by broth microdilution method; format: functional, Streptococcus sp. 'group C'
[31] = Antimicrobial activity against Streptococcus Group G clinical isolates assessed as resistant isolates by broth microdilution method; format: functional, Streptococcus sp. 'group G'
Enterococcus faecalis [32] = experiment: Antimicrobial activity against Enterococcus faecalis clinical isolates assessed as percent susceptible isolates by broth microdilution method; format: functional
Enterococcus faecium [33] = experiment: Antimicrobial activity against vancomycin-susceptible Enterococcus faecium clinical isolates by broth microdilution method; format: functional
Enterococcus faecalis [34] = experiment: Antimicrobial activity against vancomycin-nonsusceptible Enterococcus faecalis clinical isolates assessed as resistant isolates by broth microdilution method; format: functional
Enterococcus faecalis [35] = experiment: Antimicrobial activity against Enterococcus faecalis clinical isolates by broth microdilution method; format: functional
Enterococcus faecium [36] = experiment: Antimicrobial activity against Enterococcus faecium expressing VanB gene clinical isolates assessed as percent susceptible isolates by broth microdilution method; format: functional
Enterococcus faecalis [37] = experiment: Antimicrobial activity against Enterococcus faecalis clinical isolates assessed as resistant isolates by broth microdilution method; format: functional
Enterococcus faecium [38] = experiment: Antimicrobial activity against vancomycin-nonsusceptible Enterococcus faecium clinical isolates by broth microdilution method; format: functional
Enterococcus faecalis [39] = experiment: Antimicrobial activity against Enterococcus faecalis expressing VanB gene clinical isolates assessed as resistant isolates by broth microdilution method; format: functional
Enterococcus faecalis [40] = experiment: Antimicrobial activity against Enterococcus faecalis expressing VanA gene clinical isolates by broth microdilution method; format: functional
Enterococcus faecalis [41] = experiment: Antimicrobial activity against vancomycin-nonsusceptible Enterococcus faecalis clinical isolates by broth microdilution method; format: functional
Enterococcus faecium [42] = experiment: Antimicrobial activity against vancomycin-susceptible Enterococcus faecium clinical isolates assessed as resistant isolates by broth microdilution method; format: functional
Enterococcus faecium [43] = experiment: Antimicrobial activity against vancomycin-nonsusceptible Enterococcus faecium clinical isolates assessed as percent susceptible isolates by broth microdilution method; format: functional
Enterococcus faecium [44] = experiment: Antimicrobial activity against Enterococcus faecium clinical isolates assessed as percent susceptible isolates by broth microdilution method; format: functional
Enterococcus faecalis [45] = experiment: Antimicrobial activity against Enterococcus faecalis expressing VanA gene clinical isolates assessed as resistant isolates by broth microdilution method; format: functional
Enterococcus faecium [46] = experiment: Antimicrobial activity against vancomycin-susceptible Enterococcus faecium clinical isolates assessed as percent susceptible isolates by broth microdilution method; format: functional
Enterococcus faecium [47] = experiment: Antimicrobial activity against vancomycin-nonsusceptible Enterococcus faecium clinical isolates assessed as resistant isolates by broth microdilution method; format: functional
Enterococcus faecalis [48] = experiment: Antimicrobial activity against vancomycin-nonsusceptible Enterococcus faecalis clinical isolates assessed as percent susceptible isolates by broth microdilution method; format: functional
Enterococcus faecium [49] = experiment: Antimicrobial activity against Enterococcus faecium expressing VanA gene clinical isolates assessed as resistant isolates by broth microdilution method; format: functional
Enterococcus faecalis [50] = experiment: Antimicrobial activity against vancomycin-susceptible Enterococcus faecalis clinical isolates assessed as percent susceptible isolates by broth microdilution method; format: functional
Enterococcus faecalis [51] = experiment: Antimicrobial activity against Enterococcus faecalis expressing VanB gene clinical isolates assessed as percent susceptible isolates by broth microdilution method; format: functional
Enterococcus faecium [52] = experiment: Antimicrobial activity against Enterococcus faecium expressing VanB gene clinical isolates assessed as resistant isolates by broth microdilution method; format: functional
[53] = system: Staphylococcus epidermidis; experiment: Antimicrobial activity against oxacillin-resistant Staphylococcus epidermidis clinical isolates by broth microdilution method; format: functional
Staphylococcus aureus [54] = experiment: Antimicrobial activity against oxacillin-resistant Staphylococcus aureus clinical isolates by broth microdilution method; format: functional

Compound: CCC[C@@H]1C[C@@H](C(=O)N[C@@H]([C@H]2O[C@H](SC)[C@H](O)[C@@H](O)[C@H]2O)[C@H](C)Cl)N(C)C1 [CLINDAMYCIN]
- Activity [1]: 56.3%
- Activity [2]: 17.6%
- Activity [3]: 17.6%
- Activity (Streptococcus pyogenes): 28.2%
- Activity [4]: 96.4%
- Activity (Streptococcus [5]): 3.6%
- Activity [6]: 88.2%
- Activity [7]: 2.8%
- Percent of isolates resistant (Streptococcus pneumoniae [8]): 54.1%
- MIC90 [9]: > 2 µg/mL
- Percent of isolates resistant [10]: 34.5%
- Percent of isolates resistant (Streptococcus pneumoniae [11]): 2.6%
- Activity (Staphylococcus aureus [12]): 75.7%
- Activity [13]: 60.9%
- Resistant isolates [14]: 27.9%
- MIC90 [15]: > 4 µg/mL
- Activity [16]: 0%
- Activity (Streptococcus [17]): 82.4%
- Activity (Streptococcus [18]): 17.6%
- Activity (Streptococcus [19]): 96.4%
- Activity [20]: 65%
- Activity (Staphylococcus aureus [21]): 91.8%
- Activity [22]: 82.4%
- MIC90 (Staphylococcus aureus [23]): 0.25 µg/mL (≈ 0.588 µM)
- Activity [24]: 95.8%
- MIC90 [25]: 0.12 µg/mL (≈ 0.282 µM)
- Percent resistant isolates (Staphylococcus aureus [26]): 37.9%
- Resistant isolates (Streptococcus pneumoniae [27]): 12.9%
- Activity (Streptococcus [28]): 100%
- Activity (Staphylococcus aureus [29]): 61.9%
- Activity [30]: 96.4%
- Activity [31]: 3.6%

Compound: C[C@H]1COc2c(N3CCN(C)CC3)c(F)cc3c(=O)c(C(=O)O)cn1c23.C[C@H]1COc2c(N3CCN(C)CC3)c(F)cc3c(=O)c(C(=O)O)cn1c23.O [LEVOFLOXACIN]
- Activity (Enterococcus faecalis [32]): 61.2%
- MIC90 (Enterococcus faecium [33]): > 16 µg/mL
- Activity [2]: 0%
- Activity (Enterococcus faecalis [34]): 100%
- MIC90 (Enterococcus faecalis [35]): > 16 µg/mL
- Activity [3]: 0%
- Activity (Streptococcus pyogenes): 0.8%
- Activity (Enterococcus faecium [36]): 0%
- Activity (Enterococcus faecalis [37]): 38.4%
- MIC90 (Enterococcus faecium [38]): > 16 µg/mL
- Activity (Enterococcus faecalis [39]): 100%
- Percent of isolates resistant (Streptococcus pneumoniae [8]): 0.7%
- MIC90 (Enterococcus faecalis [40]): > 16 µg/mL
- MIC90 (Enterococcus faecalis [41]): > 16 µg/mL
- Activity (Enterococcus faecium [42]): 66%
- Percent of isolates resistant (Streptococcus pneumoniae [11]): 0.5%
- Activity (Enterococcus faecium [43]): 0.2%
- Activity (Enterococcus faecium [44]): 12.2%
- Activity (Enterococcus faecalis [45]): 100%
- Activity [16]: 0%
- Activity (Enterococcus faecium [46]): 28.3%
- Activity (Enterococcus faecium [47]): 99.8%
- Activity (Enterococcus faecalis [48]): 0%
- Activity (Enterococcus faecium [49]): 99.8%
- Activity (Enterococcus faecalis [50]): 64.4%
- Activity (Enterococcus faecalis [51]): 0%
- Resistant isolates (Streptococcus pneumoniae [27]): 0.9%
- Activity (Enterococcus faecium [52]): 100%
- Activity [31]: 0%

Compound: CN[C@H](CC(C)C)C(=O)N[C@H]1C(=O)N[C@@H](CC(N)=O)C(=O)N[C@H]2C(=O)N[C@H]3C(=O)N[C@H](C(=O)N[C@H](C(=O)O)c4cc(O)cc(O)c4-c4cc3ccc4O)[C@H](O)c3ccc(c(Cl)c3)Oc3cc2cc(c3O[C@@H]2O[C@H](CO)[C@@H](O)[C@H](O)[C@H]2O[C@H]2C[C@](C)(N)[C@H](O)[C@H](C)O2)Oc2ccc(cc2Cl)[C@H]1O [VANCOMYCIN]
- Activity (Enterococcus faecalis [32]): 95%
- MIC90 (Enterococcus faecium [33]): 1 µg/mL (≈ 0.69 µM)
- Activity [1]: 100%
- Activity (Enterococcus faecalis [34]): 94.3%
- MIC90 (Enterococcus faecalis [35]): 2 µg/mL (≈ 1.38 µM)
- Activity [4]: 100%
- Activity (Enterococcus faecium [36]): 0%
- Activity (Enterococcus faecalis [37]): 4.7%
- MIC90 (Enterococcus faecium [38]): > 256 µg/mL
- Activity [6]: 100%
- Activity (Enterococcus faecalis [39]): 100%
- Activity [7]: 0%
- MIC90 (Enterococcus faecalis [40]): > 256 µg/mL
- MIC90 (Enterococcus faecalis [41]): > 256 µg/mL
- Activity (Enterococcus faecium [42]): 0%
- MIC90 [9]: 2 µg/mL (≈ 1.38 µM)
- Percent of isolates resistant [10]: 0%
- Activity (Enterococcus faecium [43]): 0%
- Activity (Staphylococcus aureus [12]): 100%
- Activity [13]: 100%
- Activity (Enterococcus faecium [44]): 42.7%
- Resistant isolates [14]: 0%
- Activity (Enterococcus faecalis [45]): 100%
- MIC90 [15]: 2 µg/mL (≈ 1.38 µM)
- Activity (Streptococcus [17]): 100%
- Activity (Streptococcus [19]): 100%
- Activity [20]: 100%
- Activity (Staphylococcus aureus [21]): 100%
- Activity (Enterococcus faecalis [48]): 0%
- Activity (Enterococcus faecalis [50]): 100%
- Activity (Enterococcus faecalis [51]): 0%
- Activity [22]: 100%
- MIC90 (Staphylococcus aureus [23]): 1 µg/mL (≈ 0.69 µM)
- Activity [24]: 100%
- MIC90 [25]: 1 µg/mL (≈ 0.69 µM)
- Percent resistant isolates (Staphylococcus aureus [26]): 0%
- Activity (Streptococcus [28]): 100%
- MIC90 [53]: 2 µg/mL (≈ 1.38 µM)
- Activity (Staphylococcus aureus [29]): 100%
- Activity [30]: 100%
- MIC90 (Staphylococcus aureus [54]): 1 µg/mL (≈ 0.69 µM)
